From US20250324983A1, “METHOD AND APPARATUS FOR CONTROLLING ARTHROPODS USING MASSOIA ESSENTIAL OIL AND RELATED PYRONES” (The United States of America, as Represented by the …, priority 2024, published 2025)

Tests used:
Aedes aegypti = assay: Spatial repellency, high-throughput glass tube assay; format: in vivo; settings: concentration repelling 50% of adult female Aedes aegypti, treated filter paper in glass tube
Protocol: Adult female non-bloodfed Aedes aegypti that were 2-10 days post-eclosion were cold-anesthetized by placing on ice for several minutes. Each replicate consisted of 16 anesthetized females transferred to a glass tube (length 12.5 cm, outer diameter 2.5 cm) (TriKinetics Inc., Waltham, MA). Glass tubes were then enclosed on each end by netting held in place with blue caps removed from 50-mL polypropylene centrifuge tubes (Falcon™; Corning Inc., Corning, NY). Mosquitoes were allowed at least 15 min to recover from cold anesthetization. Round filter papers (diameter 2.5 cm) (Sigma-Aldrich Chemical Co., CITY, ST) were treated with 50 μL solution of compound dissolved in acetone at different concentrations. Treated filter papers were allowed to air dry for 10 min to allow for acetone evaporation, at which point filter papers were placed inside the cut ends of 50-mL polypropylene centrifuge tubes. The end caps with treated filter paper were then placed on the ends of the glass tubes, replacing the blue caps, with the netting left to prevent mosquito escape.
Glass tube bioassay setups were placed on a contrasting white background to facilitate observing and counting mosquitoes with a black line drawn to mark the center of the tube length. Control bioassays were set up with filter papers treated with 50 μL of acetone. Repellency was calculated as a repellency ratio using the formula: number of mosquitoes on the experimental treatment side/16, where a value of 0 is equal to full repellency and a value of 0.5 indicates no effect—i.e., an even distribution of mosquitoes on either side the tube midline. Data were recorded at 15 min, 30 min, and 1 hr for repellency and knockdown, as well as at 24 hr for mortality. […] Each concentration was replicated at least three times. After use, glass tubes were decontaminated by washing in soapy water and rinsed with acetone and distilled water. Treatment caps and nettings were washed using soapy water and rinsed with distilled water. Data were analyzed using a 4-parameter logistic regression in GraphPad Prism 9. The effective concentration that repelled 50% of mosquitoes (EC50) was used to compare different treatments.

Aedes albopictus = settings: compounds identified from massoia and nutmeg essential oils; cited from earlier work
[1] = test system: Aedes aegypti mosquitoes (susceptible—Orlando strain); assay: Topical application, knockdown and mortality; settings: in vivo
Protocol: Aedes aegypti mosquitoes (susceptible—Orlando strain) were reared using standard protocols at the United States Department of Agriculture, Agricultural Research Service Center for Medical, Agricultural, and Veterinary Entomology (CMAVE) in Gainesville, FL. Mosquitoes raised from pupae were aspirated from colony cages and anesthetized on ice. Mosquitoes were then treated with 0.2 μL of variable concentrations of insecticidal active ingredients using a repeating microapplicator (Hamilton Co., Reno, NV). Ten mosquitoes were used per concentration and at least three different biological cohorts were used in the analysis. Knockdown (defined as inability to fly or orient in the upright direction) was recorded at 1 hr or other time points post application (depending on the experiment), whereas mortality (defined as no movement-ataxia) was recorded at 24 hr. Concentrations that produced 10-90% mortality at 24 hr post exposure were used in the analysis to calculate the lethal dose required to kill 50% of the population (LD50). SAS 9.4 was used to calculate the LD50 values using a PROC PROBIT model with Abbott's correction to account for any control mortality.

[2] = test system: mosquitoes or biting flies; assay: Contact repellency, cloth patch test (minimum effective dose); format: in vivo; settings: minimum effective dose on cloth
Protocol: The cloth patch test can be used to assess the effective repellency duration for a particular application rate of a chemical to cloth being worn on the arm of a human subject. The test allows candidate repellents to be tested without contacting the skin. The candidate substance is dissolved initially in a suitable solvent which is typically acetone; however, can be extended to ethanol or DMSO (dimethyl sulfoxide). The typical protocol for a limited quantity of substance involves dissolving up to 75 mg of the candidate repellent into 1 mL of an appropriate volatile solvent, such as acetone or ethanol, in a 2-dram vial. The choice of solvent depends upon the miscibility characteristics of the candidate repellent. A 50 cm^2 (5 cm×10 cm) clean, untreated piece of muslin cloth is rolled, placed in the vial and sealed therein to allow the cloth to saturate completely with the solution. […] Prior to the bioassay, the saturated cloth is removed and each end of the cloth is attached to a 5 cm×2.5 cm piece of cardstock paper. To each card, masking tape is attached. The card/cloth assembly is then allowed to dry for 15 min hanging from a rack by the masking tape. This time is adequate to allow complete evaporation of the solvent from the cloth.
To prepare the arm for testing, the volunteer first places a latex or nitrile glove (extended length beyond the wrist) over the hand and arm and then pulls a nylon hose stocking over the hand and arm up to a point that is past the elbow. This glove prevents mosquitoes from biting through to the hand, wrist, and part of the arm where the glove provides protection. A thick plastic sleeve with a Velcro® strip is then fastened around the arm. There is a 4 cm×8 cm window opening cut into the sleeve. Volunteers may elect to use either of the two designs of this sleeve: one has a window opening with a screen mesh, the other is completely open. The cloth card frame is then taped onto the forearm at a position overlapping the window opening of the sleeve. This allows attractive human odors to escape through the opened area of the sleeve and this small window is the only area accessible for bites. Once the cloth/card assembly is on the arm, the arm is placed inside an insect cage with mosquitoes or biting flies for one minute. Typically, the test involves 500 biting flies or mosquitoes, but can be performed at a variety of biting pressures from 200-2000 individuals, but is rarely ever performed at a pressure of greater than 2000 in a cage. […]
If a sufficient quantity of the candidate repellent is available, the minimum effective dose (MED) can be determined. […] In these cases, stoichiometric equivalents, i.e., micromolar quantities, are applied to the cloth and tested as described above. […]

[3] = test system: central nervous system (CNS) of third-fourth-instar Aedes aegypti larvae; assay: Central nervous system recording of mosquito larvae; settings: applied at 100 μM
Protocol: Extracellular recordings were performed on the central nervous system (CNS) of third-fourth-instar Aedes aegypti larvae as previously described in Norris et al., “Recording central neurophysiological output from mosquito larvae for neuropharmacological and insecticide resistance studies”, Journal of Insect Physiology, 135 (2021) 104319. Mosquito larvae were pinned down and dissected to expose the descending ventral nerve cord in a saline bath (157 mM NaCl, 3 mM KCl, 2 mM CaCl2), 4 mM HEPES). The ventral nerve cord was severed using a small forceps between the second and third abdominal ganglion. Descending electrical activity was monitored by drawing emanating nerve fibers from the ventral nerve cord into a suction electrode connected to an AC/DC differential amplifier (Model 3000, A-M Systems, Inc., Carlsborg, WA). Signals were subjected to window amplitude discrimination and converted into a rate plot, expressed in Hertz (Hz), using LabChart 7 Pro software (AD Instruments Inc. Colorado Springs, CO). Noise (60 Hz) was eliminated using a Hum Bug (A-M Systems, Sequim, WA,).
Electrical activity was monitored for approximately 5-10 min to establish a baseline CNS firing rate before test solutions were added to the bath in DMSO at 1 μL of solution diluted into 999 μL of saline. All concentrations of active ingredients were expressed as their final concentrations in saline. […]

Molecule | EC50 (spatial repellency) (Aedes aegypti) [μg/cm^2] | larvicidal activity (in words) (Aedes albopictus) | also measured
δ-undecalactone | 29.5 | – | –
jasmolactone | 60.5 | – | –
C/C=C/C(=O)C1C(C)C=CCC1(C)C (centres unmarked) [δ-damascone] | 108.5 | – | –
C=C1CCC2(C(C)C)CC12 (centres unmarked) [sabinene] | – | strong larvicidal activity | –
CCCCCCC[C@@H]1CC=CC(=O)O1 [C12 massoia lactone, C-12-massoia lactone] | – | strong larvicidal activity | –
CCCCCC1CC=CC(=O)O1 (centres unmarked) [massoia lactone, 2H-pyran-2-one, 5,6-dihydro-6-pentyl-] | 5.9 | strong larvicidal activity | Slope (LD50) [1]: 8.3; MED [2]: 0.007 ± 0.002 ^B mg/cm^2; nerve block (CNS firing) [3]: some nerve block
CCCCN(CCC(=O)OCC)C(C)=O [IR3535, ethyl butylacetylaminopropionate, reference compound] | 91.8 | – | –
O=C(OCc1ccccc1)c1ccccc1O [benzyl salicylate] | – | strong larvicidal activity | –
CCC(C)OC(=O)N1CCCCC1CCO (centres unmarked) [icaridin] | – | – | MED [2]: 0.015 ± 0.004 ^B mg/cm^2
CC1(C)C(C=C(Cl)Cl)C1C(=O)OCc1cccc(Oc2ccccc2)c1 (centres unmarked) [permethrin] | – | – | MED [2]: 0.100 ± 0.022 ^A mg/cm^2
CCCCCCCC1CCC(=O)O1 (centres unmarked) [γ-undecalactone] | 18.32 | – | –
CC1=CCC(=C(C)C)CC1 [terpinolene] | – | strong larvicidal activity | –
CCN(CC)C(=O)c1cccc(C)c1 [DEET, N,N-Diethyl-meta-toluamide] | – | – | MED [2]: 0.009 ± 0.003 ^B mg/cm^2
O=C(OCc1ccccc1)c1ccccc1 [benzyl benzoate] | – | strong larvicidal activity | –
CCCCCc1cccc(=O)o1 [α-amyl-pyrone] | 6.1 | – | –
CCCCCCCC1CCCC(=O)O1 (centres unmarked) [5-dodecanolide] | 77.11 | – | –
